From patent US10736883B2, “Triazole furan compounds as agonists of the APJ receptor” (AMGEN INC., priority 2016, dated 2020)

target: APJ receptor (Homo sapiens (Human), UniProt P35414); experiment: [35S]GTPγS binding assay on membranes from CHO cells stably expressing human APJ receptor; type: biochemical; details: membranes of CHO cells stably expressing human APJ receptor, means of several independent experiments, read-out: Activity hAPJ SPA EC50 IP
Experimental: The human APJ receptor was cloned by polymerase chain reaction and the gene encoding the receptor was subcloned in pFLAG-CMV™-3 expression vector (Sigma, Saint Louis, Mo. USA) in-house at Amgen. A GTPγS binding assay was performed on membranes prepared from CHO cells stably expressing human APJ receptor. The optimum experimental conditions for the concentrations of GDP, MgCl2, and NaCl in the assay buffer were initially determined. The assay was performed in assay buffer [20 mM HEPES, pH 7.5, 5 mM MgCl2, and 0.1% (w/v) BSA with 200 mM NaCl, 3 μM GDP] and membranes expressing human APJ receptor/well along with WGA PS beads. The reaction was initiated by addition of 0.2 nM [^35S]GTPγS (Perkin Elmer Life and Analytical Sciences, Waltham USA) in the absence or presence of various ligands and incubated at RT for 90 min. Nonspecific binding was determined in the presence of 100 μM GTPγS and was always less than 0.2% of total binding. All the results presented are means of several independent experiments and analyzed by non-linear regression methods using commercially available program Prism (GraphPad, San Diego, Calif.) to obtain EC50 detailed in Table 26.

Sequence of APJ receptor (P35414 whole entry): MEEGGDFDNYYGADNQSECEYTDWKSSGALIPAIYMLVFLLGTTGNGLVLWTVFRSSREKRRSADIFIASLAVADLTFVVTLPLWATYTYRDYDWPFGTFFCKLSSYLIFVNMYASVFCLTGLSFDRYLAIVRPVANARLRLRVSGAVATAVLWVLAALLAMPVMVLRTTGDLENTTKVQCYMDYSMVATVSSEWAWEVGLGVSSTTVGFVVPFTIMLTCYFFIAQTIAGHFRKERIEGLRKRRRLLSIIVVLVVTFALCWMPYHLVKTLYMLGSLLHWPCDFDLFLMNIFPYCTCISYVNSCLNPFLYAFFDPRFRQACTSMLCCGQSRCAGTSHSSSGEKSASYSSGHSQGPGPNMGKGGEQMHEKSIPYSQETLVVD

Molecule | EC50 [pM]
CO[C@H](c1ncc(Cl)cn1)[C@H](C)S(=O)(=O)Nc1nnc(-c2ccc(C)o2)n1C(C)C [Example 388.0, (1R,2S)-1-(5-chloropyrimidin-2-yl)-N-(4-isopropyl-5-(5-methylfuran-2-yl)-4H-1,2,4-triazol-3-yl)-1-methoxypropane-2-sulfonamide] | 37000
COc1cccc(OC)c1-n1c(NS(=O)(=O)[C@@H](C)Cc2ncc(F)cn2)nnc1-c1ccc(C)o1 (racemic) [Example 94.0, (2S)—N-(4-(2,6-Dimethoxyphenyl)-5-(5-methyl-2-furanyl)-4H-1,2,4-triazol-3-yl)-1-(5-fluoro-2-pyrimidinyl)-2-propanesulfonamide and (2R)—N-(4-(2,6-dimethoxyphenyl)-5-(5-methyl-2-furanyl)-4H-1,2,4-triazol-3-yl)-1-(5-fluoro-2-pyrimidinyl)-2-propanesulfonamide] | 170
COc1cccc(OC)c1-n1c(NS(=O)(=O)c2cccc([C@@H](C)O)c2)nnc1-c1ccc(C)o1 (single isomer, unassigned) [Example 411.0, (R)-N-(4-(2,6-dimethoxyphenyl)-5-(5-methylfuran-2-yl)-4H-1,2,4-triazol-3-yl)-3-(1-hydroxyethyl)benzenesulfonamide or (S)-N-(4-(2,6-dimethoxyphenyl)-5-(5-methylfuran-2-yl)-4H-1,2,4-triazol-3-yl)-3-(1-hydroxyethyl)benzenesulfonamide] | 32000
COc1ccnc(N2C[C@H](O)C[C@H](S(=O)(=O)Nc3nnc(-c4ccc(C)o4)n3-c3c(OC)cccc3OC)C2)n1 (single isomer, unassigned) [Example 327.0, (3S,5R)—N-(4-(2,6-Dimethoxyphenyl)-5-(5-methyl-2-furanyl)-4H-1,2,4-triazol-3-yl)-5-hydroxy-1-(4-methoxy-2-pyrimidinyl)-3-piperidinesulfonamide or (3R,5S)—N-(4-(2,6-dimethoxyphenyl)-5-(5-methyl-2-furanyl)-4H-1,2,4-triazol-3-yl)-5-hydroxy-1-(4-methoxy-2-pyrimidinyl)-3-piperidinesulfonamide] | 250
COc1cccc(OC)c1-n1c(NS(=O)(=O)[C@@H](C)[C@H](O)c2cccc3ccnn23)nnc1-c1ccc(C)o1 (single isomer, unassigned) [Example 296.0, (1R,2S)—N-(4-(2,6-Dimethoxyphenyl)-5-(5-methyl-2-furanyl)-4H-1,2,4-triazol-3-yl)-1-hydroxy-1-pyrazolo[1,5-a]pyridin-7-yl-2-propanesulfonamide or (1S,2R)—N-(4-(2,6-dimethoxyphenyl)-5-(5-methyl-2-furanyl)-4H-1,2,4-triazol-3-yl)-1-hydroxy-1-pyrazolo[1,5-a]pyridin-7-yl-2-propanesulfonamide] | 6800
COCC1(n2c(NS(=O)(=O)[C@@H](C)[C@H](OC)c3ncc(Cl)cn3)nnc2-c2ccc(C)o2)CC1 [Example 385.0, (1R,2S)-1-(5-chloro-2-pyrimidinyl)-1-methoxy-N-(4-(1-(methoxymethyl)cyclopropyl)-5-(5-methyl-2-furanyl)-4H-1,2,4-triazol-3-yl)-2-propanesulfonamide] | 380
COc1ncnc(OC)c1-n1c(NS(=O)(=O)CCc2ccc(Cl)cc2)nnc1-c1ccco1 [Example 253.0, 2-(4-Chlorophenyl)-N-(4-(4,6-dimethoxy-5-pyrimidinyl)-5-(2-furanyl)-4H-1,2,4-triazol-3-yl)ethanesulfonamide] | 15000
CCO[C@@H](c1ncc(C)cn1)[C@H](C)S(=O)(=O)Nc1nnc(-c2ccc(C)o2)n1-c1c(OC)cccc1OC (single isomer, unassigned) [Example 117.0, (1S,2S)-N-(4-(2,6-dimethoxyphenyl)-5-(5-methylfuran-2-yl)-4H-1,2,4-triazol-3-yl)-1-ethoxy-1-(5-methylpyrimidin-2-yl)propane-2-sulfonamide or (1R,2R)-N-(4-(2,6-dimethoxyphenyl)-5-(5-methylfuran-2-yl)-4H-1,2,4-triazol-3-yl)-1-ethoxy-1-(5-methylpyrimidin-2-yl)propane-2-sulfonamide] | 61

Further lines, results first:

EC50 [pM] | Molecule
270000 | COc1ccc(-n2c(NS(=O)(=O)[C@@H](C)Cc3ncc(F)cn3)nnc2-c2ccco2)c(OC)c1 (mixture of isomers) [Example 315.0, (2R)—N-(4-(2,4-Dimethoxyphenyl)-5-(2-furanyl)-4H-1,2,4-triazol-3-yl)-1-(5-fluoro-2-pyrimidinyl)-2-propanesulfonamide and (2S)—N-(4-(2,4-dimethoxyphenyl)-5-(2-furanyl)-4H-1,2,4-triazol-3-yl)-1-(5-fluoro-2-pyrimidinyl)-2-propanesulfonamide]
240 | COc1cccc(OC)c1-n1c(NS(=O)(=O)C[C@@H](C)c2ncc(F)cn2)nnc1-c1ccc(C)o1 (single isomer, unassigned) [Example 123.0, (S)—N-(4-(2,6-Dimethoxyphenyl)-5-(5-methylfuran-2-yl)-4H-1,2,4-triazol-3-yl)-2-(5-fluoropyrimidin-2-yl)propane-1-sulfonamide or (R)—N-(4-(2,6-dimethoxyphenyl)-5-(5-methylfuran-2-yl)-4H-1,2,4-triazol-3-yl)-2-(5-fluoropyrimidin-2-yl)propane-1-sulfonamide]
1600 | COc1cccc(OC)c1-n1c(NS(=O)(=O)[C@H]2CC[C@H]3CCCC(=O)N3C2)nnc1-c1ccc(C)o1 (single isomer, unassigned) [Example 173.0]
370 | COc1cccc(OC)c1-n1c(NS(=O)(=O)[C@H](C)Cc2ccc(F)cn2)nnc1-c1ccco1 (single isomer, unassigned) [Example 25.0, (2R)—N-(4-(2,6-dimethoxyphenyl)-5-(2-furanyl)-4H-1,2,4-triazol-3-yl)-1-(5-fluoro-2-pyridinyl)-2-propanesulfonamide or (2S)—N-(4-(2,6-dimethoxyphenyl)-5-(2-furanyl)-4H-1,2,4-triazol-3-yl)-1-(5-fluoro-2-pyridinyl)-2-propanesulfonamide]
680 | COc1cccc(OC)c1-n1c(NS(=O)(=O)[C@H]2C[C@@H](C(=O)N3CCC3)CN(c3ncc(F)cn3)C2)nnc1-c1ccco1 (single isomer, unassigned) [Example 162.0, (3R,5S)-5-(1-Azetidinylcarbonyl)-N-(4-(2,6-dimethoxyphenyl)-5-(2-furanyl)-4H-1,2,4-triazol-3-yl)-1-(5-fluoro-2-pyrimidinyl)-3-piperidinesulfonamide or (3S,5R)-5-(1-azetidinylcarbonyl)-N-(4-(2,6-dimethoxyphenyl)-5-(2-furanyl)-4H-1,2,4-triazol-3-yl)-1-(5-fluoro-2-pyrimidinyl)-3-piperidinesulfonamide]
91 | COc1cccc(OC)c1-n1c(NS(=O)(=O)[C@H](C)Cc2ncc(Cl)cc2NC(C)=O)nnc1-c1ccco1 (single isomer, unassigned) [Example 9.0, N-(5-chloro-2-((2R)-2-((4-(2,6-dimethoxyphenyl)-5-(2-furanyl)-4H-1,2,4-triazol-3-yl)sulfamoyl)propyl)-3-pyridinyl)acetamide or N-(5-chloro-2-((2S)-2-((4-(2,6-dimethoxyphenyl)-5-(2-furanyl)-4H-1,2,4-triazol-3-yl)sulfamoyl)propyl)-3-pyridinyl)acetamide]
940 | (1R,2R)-N-(4-(2,6-dimethoxyphenyl)-5-(5-methyl-2-furanyl)-4H-1,2,4-triazol-3-yl)-1-hydroxy-1-(5-methyl-2-pyrimidinyl)-2-propanesulfonamide or (1S,2S)-N-(4-(2,6-dimethoxyphenyl)-5-(5-methyl-2-furanyl)-4H-1,2,4-triazol-3-yl)-1-hydroxy-1-(5-methyl-2-pyrimidinyl)-2-propanesulfonamide [Example 244.0]
240 | COC[C@@H]1CCCC(=O)N1C[C@H](C)S(=O)(=O)Nc1nnc(-c2ccc(C)o2)n1-c1c(OC)cccc1OC (racemic) [Example 151.0]
28000 | COc1cccc(OC)c1-n1c(NS(=O)(=O)[C@H](C)[C@@H](O)c2cscn2)nnc1-c1ccc(C)o1 (single isomer, unassigned) [Example 307.0, (1S,2R)—N-(4-(2,6-Dimethoxyphenyl)-5-(5-methyl-2-furanyl)-4H-1,2,4-triazol-3-yl)-1-hydroxy-1-(1,3-thiazol-4-yl)-2-propanesulfonamide or (1R,2S)—N-(4-(2,6-dimethoxyphenyl)-5-(5-methyl-2-furanyl)-4H-1,2,4-triazol-3-yl)-1-hydroxy-1-(1,3-thiazol-4-yl)-2-propanesulfonamide]
230000 | C[C@@H](Cc1ncc(F)cn1)S(=O)(=O)Nc1nnc(-c2ccco2)n1C1CCCCC1.C[C@H](Cc1ncc(F)cn1)S(=O)(=O)Nc1nnc(-c2ccco2)n1C1CCCCC1 (mixture of isomers) [Example 313.0, (2R)—N-(4-Cyclohexyl-5-(2-furanyl)-4H-1,2,4-triazol-3-yl)-1-(5-fluoro-2-pyrimidinyl)-2-propanesulfonamide and (2S)—N-(4-cyclohexyl-5-(2-furanyl)-4H-1,2,4-triazol-3-yl)-1-(5-fluoro-2-pyrimidinyl)-2-propanesulfonamide]
